Laboratory results reported in PMC9122897, “SHR1032, a novel STING agonist, stimulates anti-tumor immunity and directly induces AML apoptosis” (Scientific Reports, 2022).
pEC50: −log10 of the molar value.

How the values were obtained:
THP1-STING-KO cells = assay: Western blot of TBK1 and STING phosphorylation; type: cell-based, human; settings: 1 µM
Experimental: (§1) (a–d) AML cells were treated with STING agonists and standard of care cytarabine, and cell viability was measured by CellTiter Glo in (a) THP1-STING-R232, (b) THP1-STING-KO, (c) MV-4-11 and (d) MOLM-16. (e) MV-4-11, MOLM-16 and THP1-STING-KO cells were stimulated with 1 µM of SHR1032 for the indicated time points. The amount of pTBK1, total TBK1, pSTING, total STING and α-tubulin was measured by Western blot. pSTING phosphorylated STING. THP1 reporter cells were treated for 24 h with a total of 100 k cells and 150 ul media in each well a 96-well plate. Following the incubation, 20 µl of supernatant was transferred to an opaque 96 well ½ area plate and incubated for 30 s with 50 µl of QUANTI-Luc substrate (InvivoGen) per manufacturer’s instructions. Luminescence signal was measured using Tecan infinite M1000. EC50 values were calculated using non-linear regression analysis of GraphPad Prism. Cell growth was monitored by CellTiter-Glo Luminescent Cell Viability Assay (Promega) per manufacture’s protocol. GI50 values were calculated using non-linear regression analysis of GraphPad Prism. Cell lysates for western blotting were made in RIPA buffer (Sigma) with Halt Protease and Phosphatase Inhibitors (Thermo Scientific). Antibodies against pSTING, TBK1, pTBK1 and tubulin were purchased from Cell Signaling Technologies, and anti-STING was purchased from Protein Tech.

MOLM-16 cells = assay: Western blot of TBK1 and STING phosphorylation; type: cell-based, human; settings: MOLM-16, 1 µM
Experimental: as §1

MV4-11 cells = assay: Western blot of TBK1 and STING phosphorylation; type: cell-based, human; settings: MV4-11, 1 µM
Experimental: as §1

THP1 reporter cells = assay: THP1 IRF luciferase reporter assay; type: cell-based; settings: Homo sapiens, THP-1; IRF Lucia luciferase reporter, 24 h; read-out: THP1 reporter cell EC50
Text: (§2) We sought to develop small molecule compounds with increased STING agonist activity against human STING. GSK reported a series of non-CDN small molecules, represented by compound 1[13], with good human STING agonistic activity. Based on our molecular modeling analysis, along with the reported CDN-STING crystal structures, we designed a novel series of fused tricyclic heterocycle compounds and analyzed their binding to human STING with thermal shift assays and the potency in activation of STING signaling with a reporter cellular assay (Supplementary Table S1). Thermal shift assays measure the difference between apo STING and ligand bound STING in the inflection point at which 50% of protein is thermally unfolded (ΔTm). […] The ability of compounds to activate the IRF reporter gene in the THP1 cells was also evaluated.
(§3) THP1 reporter cells were treated for 24 h with a total of 100 k cells and 150 ul media in each well a 96-well plate. […] Luminescence signal was measured using Tecan infinite M1000. EC50 values were calculated using non-linear regression analysis of GraphPad Prism. Cell growth was monitored by CellTiter-Glo Luminescent Cell Viability Assay (Promega) per manufacture’s protocol. GI50 values were calculated using non-linear regression analysis of GraphPad Prism. […]

human STING = biological target: T1, human STING (Homo sapiens, UniProt Q86WV6); assay: Thermal shift assay; type: binding; settings: human STING protein 5 uM; ligand bound vs apo
T1 construct: made in house; host or cells: E. coli
Text: as §2
The melting temperature (Tm) of human STING was determined by calculating the temperature at the inflection point of the thermal melt curve generated on a Roche LightCycler 480 using 384 plate format and 465–590 nm filter set. […] Florescence was measured while ramping the plate temperature from 20 to 95 °C and the resulting data was processed using ROCHE data analysis software. Delta Tms were calculated by subtracting the Tm of untreated protein from ligand treated samples. […]

[1] = test system: THP1-IFNAR2-WT and THP1-IFNAR2-KO cells; assay: Cell TiterGlo cell viability, IFNAR2 WT versus KO; type: cell-based, human; settings: THP1-IFNAR2-WT vs -KO
Experimental: Figure 5 Cell apoptosis induced by SHR1032 in AML cell lines is independent of type I interferon. (a–d) RNA-Seq analysis of THP1-STING-R232, THP1-STING-KO and MV4-11 AML cells treated with 1 µM of SHR1032 for 4 h. […] (d) ANNEXIN V staining analysis with flow cytometry in MV4-11, MOLM-16, THP1-STING-WT and THP1-STING-KO cells. (e) Cell viability analysis by CellTiter Glo in THP1-IRFAR2-WT or -KO cells.
Type I interferons have been known to drive apoptosis in AML cells. Therefore, the apoptotic effects might be caused by type I interferons generated by STING activation. To address this question, we examined the IFNβ production with ELISA in MV4-11 and MOLM-16 cells stimulated with SHR1032. […] The activity of type I IFNs is mediated by the IFN-α receptor (IFNAR), which consists of two chains: IFNAR1 and IFNAR2. Knockout of the IFNAR2 gene abolishes the cellular response to type I IFNs.
as §3

T1 sequence (Q86WV6 155-341 limits assumed): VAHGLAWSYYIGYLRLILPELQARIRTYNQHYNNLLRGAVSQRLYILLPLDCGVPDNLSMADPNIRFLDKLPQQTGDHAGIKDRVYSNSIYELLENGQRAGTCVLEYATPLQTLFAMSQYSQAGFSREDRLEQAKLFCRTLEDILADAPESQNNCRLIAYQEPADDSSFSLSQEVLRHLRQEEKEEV

CCn1nc(C)cc1C(=O)Nc1nc2cc(C(N)=O)cc(OC)c2n1CCC[C@H]1COc2cc(C(N)=O)cc3nc(NC(=O)c4cc(C)nn4CC)n1c23 [SHR1032] was tested, and the “TBK1 and STING phosphorylation” value (THP1-STING-KO cells) was “not in THP1-STING-KO cells”, the “TBK1 and STING phosphorylation” value (MOLM-16 cells) was “induced TBK1 and STING phosphorylation” and the “TBK1 and STING phosphorylation” value (MV4-11 cells) was “induced TBK1 and STING phosphorylation”. The pEC50 (THP1 reporter cells) was 7.52, the “Thermal shift ∆Tm” value (human STING) was 10.7 °C and the “effect of IFNA receptor deletion on induced cell death” value [1] was “no effect on cell death induced by SHR1032”.
